Measured values: US20150125550A1, “APPLICATION OF 2,9-DI-SEC-BUTYL-1,10-PHENANTHROLINE AS A GLIOBLASTOMA TUMOR CHEMOTHERAPY” (priority 2013, published 2015)

Experiments:
A549 lung cancer cells = assay: SRB colorimetric assay, A549 lung cancer cells, 72 hours; assay type: cell-based, human; settings: for IC50: A549, 72 hours, average ± SD of three curves; for IC50 times lower than cisplatin: A549
Description: A549 cells were cultured in RPMI media supplemented with 10% Fetal Bovine Serum and 1% nonessential amino acids. Sub-culturing was carried out every 3-4 days and was completed by removing the supernatant media and treating the adherent cells with 1.0 mL of a 0.25% (w/v) Trypsin/0.5 mM EDTA solution. The cells were then treated for approximately 3 minutes in a 37° C. incubator under a 5% CO2 atmosphere. Trypsinization was stopped by the addition of 7.0 mL of cell culture media, the suspended cells were collected by centrifugation, and the resulting cell pellet was re-suspended in fresh cell culture media. The cells were then diluted 1:4 by volume and incubated in a 37° C. incubator with 5% CO2. Cells were grown to 80-90% confluency prior to being used in the SRB colorimetric assays.
To test the effects of compounds 1-18 on the growth of A549 lung cancer cells, SRB cytotoxicity assays were done as described by Skehan et al. Cells were maintained in RPMI media as described above, collected, and diluted so that cells could be seeded in 96-well plates at a density of 4,000 cells/well. The 96-well plate was incubated overnight at 37° C. under a 5% CO2 atmosphere. Subsequently, sterifiltered DMSO stock solutions of the drugs were added to the wells in various concentrations (0-25 μM) and the 96-well plate was incubated at 37° C. under a 5% CO2 for an additional 72 hours. The supernatant cell culture medium was then removed and the cells were fixed for 1 hour with 10% cold trichloroacetic acid (100 μL per well). The trichloroacetic acid was discarded and the plates were washed 5 times with de-ionized water and air dried. After being stained with 0.4% SRB ([…]) and incubated at room temperature for 10 minutes, the cells were washed 5 times with 1% acetic acid and air dried. The bound SRB was dissolved in 10 mM unbuffered Tris, pH 10.5 ([…]) for 10 minutes at room temperature, and the absorbance at 492 nm was measured using a microplate reader. The percent cell growth was then calculated based upon the absorbance values relative to control samples not containing any drug. Each drug concentration was done in triplicate to yield a percent growth vs. drug concentration curve, and these growth curves were subsequently repeated two additional times. The growth curves from the three experiments were then plotted in GraphPad Prism and best-fit curves were used to generate the IC50 values for each curve.

GL-26 glioma cells [1] = assay: SRB growth assay, GL-26 glioma cells, 48 hr drug incubation; assay type: cell-based, murine (C57BL/6); settings: Mus musculus, read-out: GL-26 cell growth inhibition
Description: The murine (C57BL/6) glioma cell line, GL-26, which is highly tumorigenic in the C57BL/6 mice. GL-26 cells were cultured in DMEM/F12 supplemented with 10% FCS, 1% penicillin/streptomycin, 1% L-glutamine and 1% non-essential amino acids. Human foreskin fibroblasts (HFFs) were cultured in DMEM/F12 supplemented with 10% FCS and 1% penicillin/streptomycin. Primary murine astrocytes were purified from C57BL/6 neonate brains and cultured in DMEM/F12 supplemented with 10% FCS, 1% non-essential amino acids, 1% Lglutamine, 50 IU/ml penicillin, […] and 10 mM Hepes buffer.
The sulforhodamine B (SRB) cytotoxicity assays were adapted from Skehan et al. (22). Briefly, either HFF, primary astrocytes or GL-26 cells were plated in 96-well plates at a density of 4,000 cells/well in a volume of 100 µL overnight at 37° C. and 5% CO2. DMSO stock solutions of SBP, MSBP or TMZ were used at a concentration range of 0.1-25 μM for 48 hr before the supernatant was discarded and the cells were fixed for 1 hr with 10% cold trichloroacetic acid (100 μL, per well). Cells used in recovery assay received fresh media for 48 hrs following the 48 hr drug incubation. The plate was then washed 5 times with de-ionized water, air dried, and stained with 0.4% SRB for 10 min (50 μL, per well). After washing 5 times in 1% acetic acid and air-drying, bound SRB was dissolved in 10 mM unbuffered Tris base (pH 10.5; 100 μL, per well). Bound SRB was then read by absorbance at 492 nm on a SpectraMax plate reader (Molecular Devices). The percent survival was then calculated based upon the absorbance values relative to control wells (0 μM SBP in 0.1% DMSO).

[2] = GSH buffer solution; cited from earlier work
[3] = Glutathione stability experiments (UV-visible spectra); assay type: physicochemical; settings: 5.0×10^−5 M complex, one mole equivalent GSH, phosphate buffer pH 7.4, 15 hours
Description: 5.0×10^−3 M stock solutions of compounds 10-18 were prepared in acetonitrile or DMSO, and subsequently diluted in phosphate buffer (0.10M, pH 7.4) to yield a final gold complex concentration of 5.0×10^−5 M. A stock solution of reduced glutathione in phosphate buffer (0.10M, pH 7.4) was used to add one mole equivalent of GSH to the final gold complex solution, and UV-visible spectra of compounds 10-18 were subsequently collected every hour over a 15 hour period.

GL-26 glioma cells [4] = assay: SRB growth assay, cisplatin/SBP combination; assay type: cell-based, murine (C57BL/6); settings: 0.8 μM cisplatin alone, 48 hours
Description: The murine (C57BL/6) glioma cell line, GL-26, which is highly tumorigenic in C57BL/6 mice, were used for these in-vitro experiments. GL-26 cells were cultured in DMEM/F12 supplemented with 10% FCS, 1% penicillin/streptomycin, 1% L-glutamine and 1% non-essential amino acids.
Sulforhodamine B (SRB) cytotoxicity assays were utilized to assess antitumor activity. GL-26 cells were plated in 96 well plates at a density of 4,000 cells/well (in a total volume of 100 µL) and incubated for 24 hours in a humidified atmosphere of 5% CO2 at 37° C. GL-26 cells were then exposed to Cisplatin at 0-25 μM with either 0.1 or 0.4 μM SBP for 48 hours. The supernatant was then discarded and the GL-26 cells were fixed with 10% cold trichloroacetic acid for 1 hour (100 μL/well). The cells were washed 5 times with de-ionized water, air dried, and stained with 0.4% SRB for 10 min (50 μL/well). GL-26 cells were then washed 5 times in 1% acetic acid and allowed to air dry. The bound SRB was dissolved in a 10 mM unbuffered Tris base (pH 10.5; 100 μL per well) and quantified by the absorbance at 492 nm using the SpectraMax plate reader (Molecular Devices). The fraction of cell growth was determined based upon the absorbance values in comparison to the control wells (0 μM SBP in 0.5% DMSO). All cell growth assays were done in a minimum of triplicates.

Compound	IC50 (A549 lung cancer cells; Homo sapiens)	IC50 (A549 lung cancer cells)	also measured
CCCCc1ccc2ccc3ccc(CCCC)nc3c2n1 [Compound 2, 2,9-di-n-butyl-1,10-phenanthroline]	1080 ± 280 nM	–	–
Cc1ccc2ccc3ccc(C)nc3c2n1 [Compound 3, 2,9-di-methyl-1,10-phenanthroline]	1350 ± 90 nM	–	–
CCC(C)c1ccc2ccc3c(C)cc(C(C)CC)nc3c2n1 (centres unmarked) [Compound 4, 2,9-di-sec-butyl-4-methyl-1,10-phenanthroline]	700 ± 110 nM	–	–
CCC(C)c1ccc2ccc3cccnc3c2n1 (centres unmarked) [Compound 5, 2-sec-butyl-1,10-phenanthroline]	620 ± 160 nM	–	inhibition at 6 µM (GL-26 glioma cells [1]; GL26, 6 μM): 0.6 ± 1.2%; inhibition at 25 µM (GL-26 glioma cells [1]; GL26, 25 μM): 24.7 ± 5%
Cc1c(C)c2cccnc2c2ncccc12.[Cl][Au+][Cl] [[(^5,6-di-methylphen)AuCl2]^+, reference compound]	–	–	stability in the presence of GSH (previous studies) [2]: underwent immediate reduction to gold(0) in the presence of GSH
N.N.[Cl][Pt][Cl] [cisplatin, [Pt(NH3)2Cl2], reference compound]	–	4670 ± 210 nM	cell growth compared to untreated tumor cells (GL-26 glioma cells [4]): approximately 78%
(2-mono-sec-butyl-2,2′-bipyridine)AuCl3 [Compound 18]	–	–	Cell Growth @ 12 μM (A549 lung cancer cells; A549, 12 μM): 100% Cell Growth @ 12 μM; reduction of A549 tumor cell growth (A549 lung cancer cells; concentrations used for compounds 1-8 and 10-17): did not reduce tumor cell growth at any of the concentrations

Further lines, with some results ahead:

IC50 (A549 lung cancer cells; Homo sapiens)	IC50 (A549 lung cancer cells)	Compound	also measured
2920 ± 470 nM	–	CCCCc1ccc2ccc3cccnc3c2n1 [Compound 6, 2-mono-n-butyl-phenanthroline]	–
1870 ± 210 nM	–	c1ccc(-c2ccc3ccc4ccc(-c5ccccc5)nc4c3n2)cc1 [Compound 7, 2,9-di-phenyl-1,10-phenanthroline]	–
–	1350 ± 110 nM	Cc1cc(-c2ccccc2)nc2c1ccc1ccc(-c3ccccc3)nc12 [Compound 8, 2,9-di-phenyl-4-methtyl-1,10-phenanthroline]	–
–	580 ± 150 nM	CCC(C)c1ccc2ccc3ccc(C(C)CC)nc3c2n1.[Cl][Au]([Cl])[Cl] (centres unmarked) [Compound 10, (2,9-di-sec-butyl-1,10-phenanthroline)AuCl3]	stability in the presence of GSH (previous studies) [2]: quite stable in the presence of a GSH buffer solution
–	340 ± 60 nM	CCCCc1ccc2ccc3ccc(CCCC)nc3c2n1.[Cl][Au]([Cl])[Cl] [Compound 11, (2,9-di-n-butyl-1,10-phenanthroline)AuCl3]	IC50 times lower than cisplatin (A549 lung cancer cells): approximately 12 times; times more active than the free ligand (A549 lung cancer cells; A549 IC50 ratio): approximately 3 times
–	1470 ± 210 nM	Cc1ccc2ccc3ccc(C)nc3c2n1.[Cl][Au]([Cl])[Cl] [Compound 12, (2,9-di-methyl-1,10-phenanthroline)AuCl3]	–
–	4020 ± 320 nM	CCC(C)c1ccc2ccc3c(C)cc(C(C)CC)nc3c2n1.[Cl][Au]([Cl])[Cl] (centres unmarked) [Compound 13, (2,9-di-sec-butyl-4-methyl-1,10-phenanthroline)AuCl3]	times less active than the corresponding free ligand (A549 lung cancer cells; A549 IC50 ratio): approximately 6 times
–	770 ± 70 nM	CCC(C)c1ccc2ccc3cccnc3c2n1.[Cl][Au]([Cl])[Cl] (centres unmarked) [Compound 14, (2-sec-butyl-1,10-phenanthroline)AuCl3]	–
–	370 ± 90 nM	CCCCc1ccc2ccc3cccnc3c2n1.[Cl][Au]([Cl])[Cl] [Compound 15, (2-mono-n-butyl-phenanthroline)AuCl3]	IC50 times lower than cisplatin (A549 lung cancer cells): approximately 12 times; times more active than the free ligand (A549 lung cancer cells; A549 IC50 ratio): ~8 times; redox stability in the presence of GSH [3]: no reduction to gold(I) or gold(0) occurred
–	1650 ± 130 nM	[Cl][Au]([Cl])[Cl].c1ccc(-c2ccc3ccc4ccc(-c5ccccc5)nc4c3n2)cc1 [Compound 16, (2,9-di-phenyl-1,10-phenanthroline)AuCl3]	–
–	1370 ± 110 nM	Cc1cc(-c2ccccc2)nc2c1ccc1ccc(-c3ccccc3)nc12.[Cl][Au]([Cl])[Cl] [Compound 17, (2,9-di-phenyl-4-methtyl-1,10-phenanthroline)AuCl3]	–
